From patent publication US20190280220A1, “METAL COMPLEXES” (Merck Patent GmbH, priority 2016, published 2019) come the findings set out here.

The structures appear in SMILES notation. Where only a bound is given, the exact number is not on record here.

The data set can be described thus: Comparison of solubility in organic solvents at room temperature. It counts as physicochemical. The text has this: The compounds of the invention have very good solubility in nonpolar solvents (aromatics, alkylaromatics, cyclohexane) and dipolar aprotic solvents (ketones, ethers, esters, amides, sulfones, sulfoxides etc., such as acetone, butanone, cyclohexanone, di-n-butyl ether, THF, dioxane, 3-phenoxytoluene, anisole, ethyl acetate, butyl acetate, hexyl acetate, methyl benzoate, DMF, DMAC, NMP, DMSO, dimethyl sulfone, sulfolane, etc.) and mixtures thereof, and form solutions that are stable for a long period of time. Preferred concentrations are 5-500 mg/ml, more preferably 20-200 mg/ml.

For `c1ccc(-c2c(-c3ccccc3)c(-c3ccccc3)c(-c3ccc(-c4cc(-c5ccccn5)[c]5cc4-c4ccccc4-c4cc6cc(c4)-c4ccccc4-c4c[c](c(-c7ccccn7)cc4-c4ccc(-c7c(-c8ccccc8)c(-c8ccccc8)c(-c8ccccc8)c(-c8ccccc8)c7-c7ccccc7)cc4)[Ir]5[c]4cc(c(-c5ccc(-c7c(-c8ccccc8)c(-c8ccccc8)c(-c8ccccc8)c(-c8ccccc8)c7-c7ccccc7)cc5)cc4-c4ccccn4)-c4ccccc4-6)cc3)c(-c3ccccc3)c2-c2ccccc2)cc1` [Ir(530)], the “Solubility, 3-Phenoxytoluene” value is above 150 mg/mL; the “Solubility, DMF” value is above 70 mg/mL; the “Solubility, Cyclohexane” value is above 5 mg/mL; the “Solubility, n-Butyl benzoate” value is above 80 mg/mL. The “Solubility, Toluene” value is above 100 mg/mL.

On to `c1ccc(-c2c(-c3ccccc3)c(-c3ccccc3)c(-c3cc[c]([Ir]([c]4ccc(-c5c(-c6ccccc6)c(-c6ccccc6)c(-c6ccccc6)c(-c6ccccc6)c5-c5ccccc5)cc4-c4ccccn4)[c]4ccc(-c5c(-c6ccccc6)c(-c6ccccc6)c(-c6ccccc6)c(-c6ccccc6)c5-c5ccccc5)cc4-c4ccccn4)c(-c4ccccn4)c3)c(-c3ccccc3)c2-c2ccccc2)cc1` [Ir(500)], for which the “Solubility, 3-Phenoxytoluene” value is above 150 mg/mL; the “Solubility, DMF” value was above 70 mg/mL; the “Solubility, Cyclohexane” value is above 5 mg/mL; the “Solubility, n-Butyl benzoate” value was above 80 mg/mL. In addition, the “Solubility, Toluene” value is above 100 mg/mL.
